{"source": "the NIST ThermoML archive (doi:10.1016/j.jct.2013.01.010)", "conditions": "101.33 kPa, Liquid; for speed of sound: Sing-around technique in a fixed-path interferometer; for mass density: Vibrating tube method", "note": "Numbers after ± are expanded uncertainties."}
{"smiles": "CCn1cc[n+](C)c1.F[B-](F)(F)F", "note": "[1-ethyl-3-methylimidazolium tetrafluoroborate]", "values": [{"measurement": "speed of sound", "setting": "293.15 K", "value": "1631 ± 2.4", "unit": "m/s"}, {"measurement": "mass density", "setting": "293.15 K", "value": "1283.89 ± 1.5", "unit": "kg/m3"}, {"measurement": "speed of sound", "setting": "298.15 K", "value": "1619.4 ± 2.4", "unit": "m/s"}, {"measurement": "mass density", "setting": "298.15 K", "value": "1279.91 ± 1.5", "unit": "kg/m3"}, {"measurement": "speed of sound", "setting": "303.15 K", "value": "1607.6 ± 2.4", "unit": "m/s"}, {"measurement": "mass density", "setting": "303.15 K", "value": "1276.26 ± 1.5", "unit": "kg/m3"}, {"measurement": "speed of sound", "setting": "308.15 K", "value": "1596.3 ± 2.4", "unit": "m/s"}, {"measurement": "mass density", "setting": "308.15 K", "value": "1272.07 ± 1.4", "unit": "kg/m3"}]}
{"smiles": "CC(C)=O", "note": "[acetone]", "values": [{"measurement": "speed of sound", "setting": "293.15 K", "value": "1186 ± 1.2", "unit": "m/s"}, {"measurement": "mass density", "setting": "293.15 K", "value": "789.987 ± 0.15", "unit": "kg/m3"}, {"measurement": "speed of sound", "setting": "298.15 K", "value": "1163.8 ± 1.2", "unit": "m/s"}, {"measurement": "mass density", "setting": "298.15 K", "value": "784.405 ± 0.15", "unit": "kg/m3"}, {"measurement": "speed of sound", "setting": "303.15 K", "value": "1141.4 ± 1.2", "unit": "m/s"}, {"measurement": "mass density", "setting": "303.15 K", "value": "778.871 ± 0.15", "unit": "kg/m3"}, {"measurement": "speed of sound", "setting": "308.15 K", "value": "1119.1 ± 1.2", "unit": "m/s"}, {"measurement": "mass density", "setting": "308.15 K", "value": "773.066 ± 0.15", "unit": "kg/m3"}]}
{"smiles": "C[S+](C)[O-]", "note": "[dimethyl sulfoxide]", "values": [{"measurement": "speed of sound", "setting": "293.15 K", "value": "1503.2 ± 1.2", "unit": "m/s"}, {"measurement": "mass density", "setting": "293.15 K", "value": "1100.43 ± 0.12", "unit": "kg/m3"}, {"measurement": "speed of sound", "setting": "298.15 K", "value": "1486.3 ± 1.2", "unit": "m/s"}, {"measurement": "mass density", "setting": "298.15 K", "value": "1095.42 ± 0.12", "unit": "kg/m3"}, {"measurement": "speed of sound", "setting": "303.15 K", "value": "1469.2 ± 1.2", "unit": "m/s"}, {"measurement": "mass density", "setting": "303.15 K", "value": "1090.41 ± 0.12", "unit": "kg/m3"}, {"measurement": "speed of sound", "setting": "308.15 K", "value": "1452.7 ± 1.2", "unit": "m/s"}, {"measurement": "mass density", "setting": "308.15 K", "value": "1085.39 ± 0.12", "unit": "kg/m3"}]}
